How the values were obtained:
MOLT-4 cells = experiment: Inhibitory activity on MOLT4 cell proliferation by Cell Titer-Glo method; type: cell-based; settings: Homo sapiens, 72 hours incubation, read-out: IC50 concentration for inhibiting MOLT-4 cells
Protocol: Experimental Example 5, Evaluation Experiment of Inhibitory Activity of Compound on MOLT4 Cell Proliferation by Cell Titer-Glo Method
RPMI medium modified (Hyclone), FBS (Corning), Dimethyl Sulfoxide, P/S, CellTiter-Gbo Luminescent Cell Viability Assay (Promega), MOLT-4 cell (ATCC).
MOLT-4 cells were cultured in monolayer in vitro in an incubator containing 5% CO2 air at 37° C. The culture medium was RPMI 1640 with 10% FBS and 1% P/S. 15 μL of MOLT4 cells, containing 5×10^4 cells per ml, was inoculated to a 384-well plate (Corning, 3707), 750 cells/well, and incubated at 37° C. and 5% CO2 for 30 minutes. Then the compound that had been diluted in advance was added, with a total of 9 concentration points, and 2 parallel repetitions for each concentration point. The cell growing group without adding the compound was used as a negative control (maximum signal control), and the culture medium group was used as a blank control (minimum signal control). At the same time, it was ensured that the final DMSO content in each reaction well was 0.1%. The compound and the cells were incubated in a cell culture incubator at 37° C., 5% CO2 for 3 days (72 hours).
The 384-well plate was taken out from the cell culture incubator and allowed to stand at room temperature, equilibrated for 20 to 30 minutes, and then 25 μl of Cell Titer-Glo detection reagent was added to each reaction well, lysed on a shaker for 2 minutes, incubated for 10 minutes, and BMG PHERAStar (Luminescence) was used for reading.
The inhibition rate was calculated based on the luminescence signals: the average value of the negative control (maximum signal control) and the blank control (minimum signal control) was first calculated, then the inhibition rates of the compound at different concentrations for the cells were calculated as follows:
The IC50 of the compound to inhibit cell activity was calculated by fitting with GraphPad Prism 6 using log(inhibitor) vs. response−Variable slope mode. The fitting equation was: Y=Bottom+(Top−Bottom)/(1+10^((LogIC50−X)*HillSlope)), wherein Y represented the inhibition rate and X represented the known compound concentration after Log.

[1] = molecular target: ternary complex between BCL-XL and CRBN-DDB1 (Homo sapiens, UniProt Q07817+Q96SW2); experiment: Compound-induced formation of ternary complex between BCL-XL and CRBN-DDB1 by AlphaLISA; type: biochemical; set-up: key: the number of + indicates the intensity of AlphaLISA peak signal; ++: the number of + indicates the intensity of AlphaLISA peak signal; +++: the number of + indicates the intensity of AlphaLISA peak signal; ++++: the number of + indicates the intensity of AlphaLISA peak signal; +++++: the number of + indicates the intensity of AlphaLISA peak signal; settings: peak signal; 60 nM Strep-BCL-XL and 60 nM His-CRBN/DDB1
Chain of ternary complex between BCL-XL and CRBN-DDB1 (Q07817 whole entry): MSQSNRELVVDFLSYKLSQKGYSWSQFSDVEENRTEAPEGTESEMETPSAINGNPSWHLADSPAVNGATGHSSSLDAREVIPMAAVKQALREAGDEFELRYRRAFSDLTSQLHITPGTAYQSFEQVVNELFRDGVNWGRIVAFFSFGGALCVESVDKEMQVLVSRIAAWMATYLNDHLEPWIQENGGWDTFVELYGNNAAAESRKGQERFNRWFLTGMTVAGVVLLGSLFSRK
Chain of ternary complex between BCL-XL and CRBN-DDB1 (Q96SW2 whole entry): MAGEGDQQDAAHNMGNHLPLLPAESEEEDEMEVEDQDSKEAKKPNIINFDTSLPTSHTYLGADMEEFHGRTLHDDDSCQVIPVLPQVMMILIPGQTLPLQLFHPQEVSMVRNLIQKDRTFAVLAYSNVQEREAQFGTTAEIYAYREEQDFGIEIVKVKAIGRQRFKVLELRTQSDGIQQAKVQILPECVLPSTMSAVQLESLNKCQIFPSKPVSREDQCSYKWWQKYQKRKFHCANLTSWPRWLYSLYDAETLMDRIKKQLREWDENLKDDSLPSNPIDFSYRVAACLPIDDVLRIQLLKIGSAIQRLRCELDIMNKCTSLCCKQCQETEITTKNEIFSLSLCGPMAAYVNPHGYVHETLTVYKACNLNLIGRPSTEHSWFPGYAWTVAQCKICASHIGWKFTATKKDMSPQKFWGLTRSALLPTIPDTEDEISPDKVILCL
Chain of ternary complex between BCL-XL and CRBN-DDB1 (Q16531 whole entry partner): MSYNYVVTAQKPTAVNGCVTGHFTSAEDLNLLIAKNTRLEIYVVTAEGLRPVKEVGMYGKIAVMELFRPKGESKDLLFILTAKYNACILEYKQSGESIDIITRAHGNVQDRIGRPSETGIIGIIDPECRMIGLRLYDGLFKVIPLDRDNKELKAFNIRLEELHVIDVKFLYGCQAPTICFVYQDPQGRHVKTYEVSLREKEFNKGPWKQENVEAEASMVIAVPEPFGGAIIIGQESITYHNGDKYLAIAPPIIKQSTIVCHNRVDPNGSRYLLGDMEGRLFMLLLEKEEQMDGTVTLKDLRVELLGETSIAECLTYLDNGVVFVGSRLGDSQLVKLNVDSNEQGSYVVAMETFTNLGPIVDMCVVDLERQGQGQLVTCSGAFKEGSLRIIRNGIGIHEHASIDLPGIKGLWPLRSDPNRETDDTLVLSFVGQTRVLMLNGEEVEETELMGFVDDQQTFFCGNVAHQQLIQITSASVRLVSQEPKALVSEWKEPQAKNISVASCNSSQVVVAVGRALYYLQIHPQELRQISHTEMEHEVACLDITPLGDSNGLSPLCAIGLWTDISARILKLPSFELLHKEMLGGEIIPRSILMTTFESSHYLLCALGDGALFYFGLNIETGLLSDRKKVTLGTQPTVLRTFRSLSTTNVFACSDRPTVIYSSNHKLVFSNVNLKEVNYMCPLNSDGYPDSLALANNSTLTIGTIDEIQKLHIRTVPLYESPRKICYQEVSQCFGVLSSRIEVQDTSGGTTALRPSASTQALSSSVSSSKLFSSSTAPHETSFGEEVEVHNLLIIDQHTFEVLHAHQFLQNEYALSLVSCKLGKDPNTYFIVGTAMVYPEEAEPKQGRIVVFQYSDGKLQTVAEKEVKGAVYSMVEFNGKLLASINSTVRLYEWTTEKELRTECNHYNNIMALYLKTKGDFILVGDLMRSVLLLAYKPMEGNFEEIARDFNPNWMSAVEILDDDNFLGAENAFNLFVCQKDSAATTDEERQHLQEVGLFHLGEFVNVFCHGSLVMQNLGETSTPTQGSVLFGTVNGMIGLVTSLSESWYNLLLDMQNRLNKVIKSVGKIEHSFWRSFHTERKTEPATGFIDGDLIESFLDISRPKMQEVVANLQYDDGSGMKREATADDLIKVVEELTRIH
Protocol: Experimental Example 4, Detection of Compound-Induced Formation of Ternary Complex Between BCL-XL and CRBN-DDB1 by AlphaLISA Method
Na2HPO4(Sigma), NaH2PO4(Sigma), sodium chloride (Sigma), Tween-20 (Sigma), AlphaLISA®Nikel Chelate Acceptor beads (PerkinElmer), Strep-Tactin® Alpha Donor beads (PerkinElmer), Assay plate (Corning), Strep-BCl-XL (HitGen), His-CRBN/DDB1 (HitGen).
DMSO was used to dissolve the dry powder of the test compound to obtain a 10.00 mM solution. The instrument ECHO was used to perform gradient dilution of the compound, which was then added to a 384-well reaction plate (Corning, Cat #3824), so that the final concentration of DMSO in the entire reaction system (10.0 μL) was less than 1%, and the same amount of DMSO was added and used as a control.
Strep-BCl-XL and His-CRBN/DDB1 proteins were dissolved in buffer (10 mM NaH2PO4, 40 mM Na2HPO4, 150 mM sodium chloride, 0.03% Tween20, pH=7.4) to obtain a protein mixture of 60 nM Strep-BCL-XL and 60 nM His-CRBN/DDB1, the protein mixture (5ul/well) was added to the 384-well plate in which the compound had been added, and incubated at room temperature for 30 minutes, then 5 μl of a detection mixture with 50 μg/ml AlphaLISA®Nikel Chelate Acceptor beads and 50 μg/ml Strep-Tactin® Alpha Donor beads was added, and incubated at room temperature for 2 hours; and then a microplate reader was used to detect AlphaLISA signal.
Fifth order polynomial or Sixth order polynomial in Polynomial of Graphpad 6.0 was used for data fitting.

Row | Structure (SMILES) | IC50 (MOLT-4 cells) [µM] | AlphaLISA signal (PROTAC ternary complex signal intensity) [1]
1 | C=Cc1cc(-c2nc3c(c(NC)n2)CCN(C(=O)c2ccc(COc4ccc(C#CCN5CCN(CCCCNc6cccc7c6C(=O)N(C6CCC(=O)NC6=O)C7=O)CC5)cc4)cc2)C3)cnc1C=C (stereo not drawn) [Compound C2-2] | 50 to 100 | ++++
2 | C=Cc1cc(-c2nc3c(c(NC)n2)CCN(C(=O)c2ccc(COc4ccc(C#CCN5CCN(CCCCCCNc6cccc7c6C(=O)N(C6CCC(=O)NC6=O)C7=O)CC5)cc4)cc2)C3)cnc1C=C (stereo not drawn) [Compound C2-4] |  | ++++
3 | C=Cc1cc(-c2nc3c(c(NC)n2)CCN(C(=O)c2ccc(COc4ccc(C#CCN(C)CCCCOc5cccc6c5C(=O)N(C5CCC(=O)NC5=O)C6=O)cc4)cc2)C3)cnc1C=C (stereo not drawn) [Compound B2] |  | +
4 | CNc1nc(-c2cnc3ccccc3c2)nc2c1CCN(C(=O)c1ccc(/C=C/c3ccc(C#CCN4CCN(CCCCC(=O)N[C@H](C(=O)N5C[C@H](O)C[C@H]5C(=O)NCc5ccc(-c6scnc6C)cc5)C(C)(C)C)CC4)cc3)cc1)C2 [Compound G1-4] |  | +
5 | CNc1nc(-c2cnc3ccccc3c2)nc2c1CCN(C(=O)c1ccc(/C=C/c3ccc(C#CCN4CCN(C(=O)CCC(=O)N[C@H](C(=O)N5C[C@H](O)C[C@H]5C(=O)N[C@@H](C)c5ccc(-c6scnc6C)cc5)C(C)(C)C)CC4)cc3)cc1)C2 [Compound G2-2] |  | +
6 | C=Cc1cc(-c2nc3c(c(NC)n2)CCN(C(=O)c2ccc(COc4ccc(C#CCN5CCN(CCCCCCCCOc6cccc7c6C(=O)N(C6CCC(=O)NC6=O)C7=O)CC5)cc4)cc2)C3)cnc1C=C (stereo not drawn) [Compound C3-18] |  | +++
7 | CNc1nc(-c2cnc3ccccc3c2)nc2c1CCN(C(=O)c1ccc(/C=C/c3ccc(C#CCN4CCN(C(=O)CCCCCCC(=O)N[C@H](C(=O)N5C[C@H](O)C[C@H]5C(=O)NCc5ccc(-c6scnc6C)cc5)C(C)(C)C)CC4)cc3)cc1)C2 [Compound G2-6] |  | +
8 | CNc1nc(-c2cnc3ccccc3c2)nc2c1CCN(C(=O)c1ccc(/C=C/c3ccc(C#CCN4CCN(C(=O)CCCC(=O)N[C@H](C(=O)N5C[C@H](O)C[C@H]5C(=O)NCc5ccc(-c6scnc6C)cc5)C(C)(C)C)CC4)cc3)cc1)C2 [Compound G2-3] |  | +
9 | C=Cc1cc(-c2ncc3c(n2)CN(C(=O)c2ccc(COc4ccc(C#CCN5CCN(CCCCCOc6cccc7c6C(=O)N(C6CCC(=O)NC6=O)C7=O)CC5)nc4)cc2)CC3)cnc1C=C (stereo not drawn) [Compound C3-13] |  | +
10 | CNc1nc(-c2cnc3ccccc3c2)nc2c1CCN(C(=O)c1ccc(/C=C/c3ccc(C#CCN4CCN(CCCCC(=O)N[C@H](C(=O)N5C[C@H](O)C[C@H]5C(=O)N[C@@H](C)c5ccc(-c6scnc6C)cc5)C(C)(C)C)CC4)cc3)cc1)C2 [Compound G3-1] |  | +
11 | CNc1nc(-c2cnc3ccccc3c2)nc2c1CCN(C(=O)c1ccc(/C=C/c3ccc(C#CCN4CCN(C(=O)CCCCCC(=O)N[C@H](C(=O)N5C[C@H](O)C[C@H]5C(=O)NCc5ccc(-c6scnc6C)cc5)C(C)(C)C)CC4)cc3)cc1)C2 [Compound G2-5] |  | +
12 | C/C=c1/cc(-c2nc3c(c(NC)n2)CCN(C(=O)c2ccc(COc4ccc(C#CCN(C)CCCCCOc5cccc6c5C(=O)N(C5CCC(=O)NC5=O)C6=O)cc4)cc2)C3)cn/c1=C/C (stereo not drawn) [Compound B3] |  | +
13 | CNc1nc(-c2cnc3ccccc3c2)nc2c1CCN(C(=O)c1ccc(/C=C/c3ccc(C#CCN4CCN(C(=O)CCCCCCCCC(=O)N[C@H](C(=O)N5C[C@H](O)C[C@H]5C(=O)N[C@@H](C)c5ccc(-c6scnc6C)cc5)C(C)(C)C)CC4)cc3)cc1)C2 [Compound G2-7] |  | +
14 | C=Cc1cc(-c2ncc3c(n2)CN(C(=O)c2ccc(COc4ccc(C#CCN5CCN(CCCCCOc6cccc7c6C(=O)N(C6CCC(=O)NC6=O)C7=O)CC5)cc4)cn2)CC3)cnc1C=C (stereo not drawn) [Compound C3-10] |  | ++
15 | O=C1CCC(N2C(=O)c3cccc(N4CC5(CC(N6CCN(CC#Cc7ccc(/C=C/c8ccc(C(=O)N9CCc%10cnc(-c%11cnc%12ccccc%12c%11)nc%10C9)cc8)cc7)CC6)C5)C4)c3C2=O)C(=O)N1 (stereo not drawn) [Compound F3A-1] | > 200 | 
16 | O=C1CCC(N2Cc3cc(N4CCC(N5CCN(CC#Cc6ccc(/C=C/c7ccc(C(=O)N8CCc9cnc(-c%10cnc%11ccccc%11c%10)nc9C8)cc7)cc6)CC5)CC4)ccc3C2=O)C(=O)N1 (stereo not drawn) [Compound F2-3] | 1 to 10 | 
17 | O=C1CCC(c2cccc(C#CCCN3CCN(CC#Cc4ccc(OCC56CC(C(=O)N7CCc8cnc(-c9cnc%10ccccc%10c9)nc8C7)(C5)C6)cc4)CC3)c2)C(=O)N1 (stereo not drawn) [Compound D2-16] | 1 to 10 | 
18 | C=Cc1cc(-c2nc3c(c(NC)n2)CCN(C(=O)c2ccc(COc4ccc(C#CCN5CCN(CCCCCCCCNc6cccc7c6C(=O)N(C6CCC(=O)NC6=O)C7=O)CC5)cc4)cc2)C3)cnc1C=C (stereo not drawn) [Compound C2-5] |  | +++
19 | CNc1nc(-c2cnc3ccccc3c2)nc2c1CCN(C(=O)c1ccc(/C=C/c3ccc(C#CCN4CCN(C(=O)CCCCC(=O)N[C@H](C(=O)N5C[C@H](O)C[C@H]5C(=O)NCc5ccc(-c6scnc6C)cc5)C(C)(C)C)CC4)cc3)cc1)C2 [Compound G2-4] |  | +
20 | C=Cc1cc(-c2nc3c(c(NC)n2)CCN(C(=O)c2ccc(COc4ccc(C#CCN5CCN(CCCOc6cccc7c6C(=O)N(C6CCC(=O)NC6=O)C7=O)CC5)cc4)cc2)C3)cnc1C=C (stereo not drawn) [Compound C3-14] |  | +
21 | O=C1CCC(N2Cc3cc(N4CCC(N5CCN(CC#Cc6ccc(OCC78CC(C(=O)N9CCc%10cnc(-c%11cnc%12ccccc%12c%11)nc%10C9)(C7)C8)cc6)CC5)CC4)ccc3C2=O)C(=O)N1 (stereo not drawn) [Compound F2-10] | 1 to 10 | 
22 | C=Cc1cc(-c2nc3c(c(NC)n2)CCN(C(=O)c2ccc(COc4ccc(C#CCN5CCN(CCCCOc6cccc7c6C(=O)N(C6CCC(=O)NC6=O)C7=O)CC5)cc4)cc2)C3)cnc1C=C (stereo not drawn) [Compound C3-15] |  | +
23 | CNc1nc(-c2cnc3ccccc3c2)nc2c1CCN(C(=O)c1ccc(/C=C/c3ccc(C#CCN4CCN(C5CCN(c6ccc7c(c6)CN(C6CCC(=O)NC6=O)C7=O)CC5)CC4)cc3)cc1)C2 (stereo not drawn) [Compound F2-7] | 1 to 10 | 
24 | C=Cc1cc(-c2ncc3c(n2)CN(C(=O)c2ccc(/C=C/c4ccc(C#CCN5CCN(CCCCCOc6cccc7c6C(=O)N(C6CCC(=O)NC6=O)C7=O)CC5)nc4)cc2)CC3)cnc1C=C (stereo not drawn) [Compound C3-8] | > 200 | 
25 | O=C1CCC(N2Cc3c(CCCN4CCC(N5CCN(CC#Cc6ccc(/C=C/c7ccc(C(=O)N8CCc9cnc(-c%10cnc%11ccccc%11c%10)nc9C8)cc7)cc6)CC5)CC4)cccc3C2=O)C(=O)N1 (stereo not drawn) [Compound F2-6] | 100 to 200 | 
26 | C=Cc1cc(-c2ncc3c(n2)CN(C(=O)c2ccc(/C=C/c4ccc(C#CCN5CCN(CCCCCCOc6cccc7c6C(=O)N(C6CCC(=O)NC6=O)C7=O)CC5)cc4)cc2)CC3)cnc1C=C (stereo not drawn) [Compound C3-3] |  | +

Source: US20250136593A1, “DEGRADATION AGENT AND USE THEREOF” (HITGEN INC., priority 2021, published 2025)
